Source: ChEMBL document CHEMBL1139699, “Solid-phase synthesis and antibacterial activity of hydroxycinnamic acid amides and analogues against methicillin-resistant Staphylococcus aureus and vancomycin-resistant S. aureus” (Bioorg Med Chem Lett, 2006)
Values after ≈ are worked out from the molar mass of the structure shown. Active and inactive are the calls of the source. The calls are words filed in the database; no cut-off is given here.

Key:
Staphylococcus aureus [1] = experiment: Antibacterial activity against vancomycin-resistant Staphylococcus aureus 20622 at 256 ug/ml; type: functional, organism-based
Staphylococcus aureus [2] = experiment: Antibacterial activity against vancomycin-resistant Staphylococcus aureus 20623 at 256 ug/ml; type: functional, organism-based
Staphylococcus aureus [3] = experiment: Antibacterial activity against vancomycin-resistant Staphylococcus aureus 20624 at 256 ug/ml; type: functional, organism-based
Staphylococcus aureus [4] = experiment: Antibacterial activity against vancomycin-resistant Staphylococcus aureus 21083 at 256 ug/ml; type: functional, organism-based
Staphylococcus aureus [5] = experiment: Antibacterial activity against methicillin-resistant Staphylococcus aureus at 256 ug/ml; type: functional, organism-based
Staphylococcus aureus [6] = experiment: Antibacterial activity against methicillin-resistant Staphylococcus aureus 20628 at 256 ug/ml; type: functional, organism-based
Staphylococcus aureus [7] = experiment: Antibacterial activity against methicillin-resistant Staphylococcus aureus 20630 at 256 ug/ml; type: functional, organism-based
Staphylococcus aureus [8] = experiment: Antibacterial activity against methicillin-resistant Staphylococcus aureus 20631 at 256 ug/ml; type: functional, organism-based
Staphylococcus aureus [9] = experiment: Antibacterial activity against methicillin-resistant Staphylococcus aureus 20632 at 256 ug/ml; type: functional, organism-based
Staphylococcus aureus [10] = experiment: Antibacterial activity against methicillin-resistant Staphylococcus aureus 20633 at 256 ug/ml; type: functional, organism-based
Staphylococcus aureus [11] = experiment: Antibacterial activity against methicillin-resistant Staphylococcus aureus 20635 at 256 ug/ml; type: functional, organism-based
Staphylococcus aureus [12] = experiment: Antibacterial activity against methicillin-resistant Staphylococcus aureus 20636 at 256 ug/ml; type: functional, organism-based
Staphylococcus aureus [13] = experiment: Antibacterial activity against methicillin-resistant Staphylococcus aureus 20652 at 256 ug/ml; type: functional, organism-based
Staphylococcus aureus [14] = experiment: Antibacterial activity against methicillin-resistant Staphylococcus aureus 20653 at 256 ug/ml; type: functional, organism-based
Staphylococcus aureus [15] = experiment: Antibacterial activity against methicillin-resistant Staphylococcus aureus 20654 at 256 ug/ml; type: functional, organism-based
Staphylococcus aureus [16] = experiment: Antibacterial activity against vancomycin-resistant Staphylococcus aureus 20623; type: functional
Staphylococcus aureus [17] = experiment: Antibacterial activity against vancomycin-resistant Staphylococcus aureus 20624; type: functional
Staphylococcus aureus [18] = experiment: Antibacterial activity against vancomycin-resistant Staphylococcus aureus 21083; type: functional
Staphylococcus aureus [19] = experiment: Antibacterial activity against methicillin-resistant Staphylococcus aureus 20652 at 50 ug/ml; type: functional, organism-based
[20] = Cytotoxicity against human gingival cells; type: cell-based
Staphylococcus aureus [21] = experiment: Antibacterial activity against methicillin-resistant Staphylococcus aureus; type: functional
Staphylococcus aureus [22] = experiment: Antibacterial activity against methicillin-resistant Staphylococcus aureus 20628; type: functional
Staphylococcus aureus [23] = experiment: Antibacterial activity against methicillin-resistant Staphylococcus aureus 20630; type: functional
Staphylococcus aureus [24] = experiment: Antibacterial activity against methicillin-resistant Staphylococcus aureus 20631; type: functional
Staphylococcus aureus [25] = experiment: Antibacterial activity against methicillin-resistant Staphylococcus aureus 20632; type: functional
Staphylococcus aureus [26] = experiment: Antibacterial activity against methicillin-resistant Staphylococcus aureus 20633; type: functional
Staphylococcus aureus [27] = experiment: Antibacterial activity against methicillin-resistant Staphylococcus aureus 20635; type: functional
Staphylococcus aureus [28] = experiment: Antibacterial activity against methicillin-resistant Staphylococcus aureus 20636; type: functional
Staphylococcus aureus [29] = experiment: Antibacterial activity against methicillin-resistant Staphylococcus aureus 20653; type: functional
Staphylococcus aureus [30] = experiment: Antibacterial activity against methicillin-resistant Staphylococcus aureus 20654; type: functional
Staphylococcus aureus [31] = experiment: Antibacterial activity against vancomycin-resistant Staphylococcus aureus 20622; type: functional
Staphylococcus aureus [32] = experiment: Antibacterial activity against methicillin-resistant Staphylococcus aureus 20652 at 100 ug/ml; type: functional, organism-based
Staphylococcus aureus [33] = experiment: microbe, parasite or virus in culture; conditions: 20652
Staphylococcus aureus [34] = experiment: Antibacterial activity against methicillin-resistant Staphylococcus aureus 20628 at 25 ug/ml; type: functional, organism-based
Staphylococcus aureus [35] = experiment: Antibacterial activity against methicillin-resistant Staphylococcus aureus 20633 at 25 ug/ml; type: functional, organism-based
Staphylococcus aureus [36] = experiment: Antibacterial activity against methicillin-resistant Staphylococcus aureus 20636 at 25 ug/ml; type: functional, organism-based
Staphylococcus aureus [37] = experiment: Antibacterial activity against methicillin-resistant Staphylococcus aureus 20652 at 25 ug/ml; type: functional, organism-based
Staphylococcus aureus [38] = experiment: Antibacterial activity against methicillin-resistant Staphylococcus aureus 20653 at 25 ug/ml; type: functional, organism-based
Staphylococcus aureus [39] = experiment: Antibacterial activity against methicillin-resistant Staphylococcus aureus 20654 at 25 ug/ml; type: functional, organism-based

Q: For `Cc1onc(-c2ccccc2)c1C(=O)N[C@@H]1C(=O)N2[C@@H]1SC(C)(C)[C@@H]2C(=O)O`, which Activity (Staphylococcus aureus [1]) is on record?
A: inactive

Q: And the Activity (Staphylococcus aureus [2])?
A: inactive

Q: And the Activity (Staphylococcus aureus [3])?
A: inactive

Q: And the Activity (Staphylococcus aureus [4])?
A: inactive

Q: And the Activity (Staphylococcus aureus [5])?
A: inactive

Q: What about the Activity (Staphylococcus aureus [6]) of the same compound?
A: inactive

Q: What about the Activity (Staphylococcus aureus [7]) of the same compound?
A: inactive

Q: And the Activity (Staphylococcus aureus [8])?
A: inactive

Q: What about the Activity (Staphylococcus aureus [9]) of the same compound?
A: inactive

Q: What about the Activity (Staphylococcus aureus [10]) of the same compound?
A: inactive

Q: And the Activity (Staphylococcus aureus [11])?
A: inactive

Q: What about the Activity (Staphylococcus aureus [12]) of the same compound?
A: inactive

Q: What about the Activity (Staphylococcus aureus [13]) of the same compound?
A: inactive

Q: What about the Activity (Staphylococcus aureus [14]) of the same compound?
A: inactive

Q: What about the Activity (Staphylococcus aureus [15]) of the same compound?
A: inactive

Q: For `NCCCNC(=O)CCc1ccc(O)c(O)c1`, which MIC (Staphylococcus aureus [16]) is on record?
A: 50 µg/mL (≈ 210 µM)

Q: What about the MIC (Staphylococcus aureus [17]) of the same compound?
A: 50 µg/mL (≈ 210 µM)

Q: And the MIC (Staphylococcus aureus [18])?
A: 25 µg/mL (≈ 105 µM)

Q: And the Activity (Staphylococcus aureus [19])?
A: inactive

Q: What about the IC50 [20] of the same compound?
A: > 100 µg/mL

Q: And the MIC (Staphylococcus aureus [21])?
A: 50 µg/mL (≈ 210 µM)

Q: And the MIC (Staphylococcus aureus [22])?
A: 50 µg/mL (≈ 210 µM)

Q: And the MIC (Staphylococcus aureus [23])?
A: 50 µg/mL (≈ 210 µM)

Q: What about the MIC (Staphylococcus aureus [24]) of the same compound?
A: 50 µg/mL (≈ 210 µM)

Q: And the MIC (Staphylococcus aureus [25])?
A: 50 µg/mL (≈ 210 µM)

Q: What about the MIC (Staphylococcus aureus [26]) of the same compound?
A: 50 µg/mL (≈ 210 µM)

Q: What about the MIC (Staphylococcus aureus [27]) of the same compound?
A: 25 µg/mL (≈ 105 µM)

Q: What about the MIC (Staphylococcus aureus [28]) of the same compound?
A: 25 µg/mL (≈ 105 µM)

Q: And the MIC (Staphylococcus aureus [29])?
A: 25 µg/mL (≈ 105 µM)

Q: What about the MIC (Staphylococcus aureus [30]) of the same compound?
A: 50 µg/mL (≈ 210 µM)

Q: And the MIC (Staphylococcus aureus [31])?
A: 100 µg/mL (≈ 420 µM)

Q: Which MIC (Staphylococcus aureus [16]) does the source give for `NCCCCCCNC(=O)/C=C/c1ccc(O)c(O)c1` here?
A: 50 µg/mL (≈ 180 µM)

Q: What about the MIC (Staphylococcus aureus [17]) of the same compound?
A: 50 µg/mL (≈ 180 µM)

Q: What about the MIC (Staphylococcus aureus [18]) of the same compound?
A: 25 µg/mL (≈ 89.8 µM)

Q: What about the Activity (Staphylococcus aureus [32]) of the same compound?
A: inactive

Q: And the IC50 [20]?
A: > 100 µg/mL

Q: What about the MIC (Staphylococcus aureus [21]) of the same compound?
A: 100 µg/mL (≈ 359 µM)

Q: And the MIC (Staphylococcus aureus [22])?
A: 50 µg/mL (≈ 180 µM)

Q: And the MIC (Staphylococcus aureus [23])?
A: 50 µg/mL (≈ 180 µM)

Q: And the MIC (Staphylococcus aureus [24])?
A: 50 µg/mL (≈ 180 µM)

Q: What about the MIC (Staphylococcus aureus [25]) of the same compound?
A: 50 µg/mL (≈ 180 µM)

Q: And the MIC (Staphylococcus aureus [26])?
A: 50 µg/mL (≈ 180 µM)

Q: And the MIC (Staphylococcus aureus [27])?
A: 25 µg/mL (≈ 89.8 µM)

Q: What about the MIC (Staphylococcus aureus [28]) of the same compound?
A: 50 µg/mL (≈ 180 µM)

Q: What about the MIC (Staphylococcus aureus [29]) of the same compound?
A: 25 µg/mL (≈ 89.8 µM)

Q: And the MIC (Staphylococcus aureus [30])?
A: 25 µg/mL (≈ 89.8 µM)

Q: And the MIC (Staphylococcus aureus [31])?
A: 100 µg/mL (≈ 359 µM)

Q: What does the source list for `NCCCCNC(=O)CCc1ccc(O)c(O)c1`?
A: MIC (Staphylococcus aureus [16]): 25 µg/mL (≈ 99.1 µM); MIC (Staphylococcus aureus [17]): 25 µg/mL (≈ 99.1 µM); MIC (Staphylococcus aureus [18]): 25 µg/mL (≈ 99.1 µM); Activity (Staphylococcus aureus [19]): inactive; IC50 [20]: > 100 µg/mL; MIC (Staphylococcus aureus [21]): 25 µg/mL (≈ 99.1 µM); MIC (Staphylococcus aureus [22]): 50 µg/mL (≈ 198 µM); MIC (Staphylococcus aureus [23]): 50 µg/mL (≈ 198 µM); MIC (Staphylococcus aureus [24]): 25 µg/mL (≈ 99.1 µM); MIC (Staphylococcus aureus [25]): 25 µg/mL (≈ 99.1 µM); MIC (Staphylococcus aureus [26]): 25 µg/mL (≈ 99.1 µM); MIC (Staphylococcus aureus [27]): 12.5 µg/mL (≈ 49.5 µM); MIC (Staphylococcus aureus [28]): 25 µg/mL (≈ 99.1 µM); MIC (Staphylococcus aureus [29]): 25 µg/mL (≈ 99.1 µM); MIC (Staphylococcus aureus [30]): 25 µg/mL (≈ 99.1 µM); MIC (Staphylococcus aureus [31]): 100 µg/mL (≈ 396 µM)

Q: Which MIC (Staphylococcus aureus [23]) does the source give for `CN[C@H](CC(C)C)C(=O)N[C@H]1C(=O)N[C@@H](CC(N)=O)C(=O)N[C@H]2C(=O)N[C@H]3C(=O)N[C@H](C(=O)N[C@H](C(=O)O)c4cc(O)cc(O)c4-c4cc3ccc4O)[C@H](O)c3ccc(c(Cl)c3)Oc3cc2cc(c3O[C@@H]2O[C@H](CO)[C@@H](O)[C@H](O)[C@H]2O[C@H]2C[C@](C)(N)[C@H](O)[C@H](C)O2)Oc2ccc(cc2Cl)[C@H]1O` [VANCOMYCIN] here?
A: 1.5 µg/mL (≈ 1.04 µM)

Q: What about the MIC (Staphylococcus aureus [24]) of the same compound?
A: 48 µg/mL (≈ 33.1 µM)

Q: What about the MIC (Staphylococcus aureus [25]) of the same compound?
A: 3 µg/mL (≈ 2.07 µM)

Q: What about the MIC (Staphylococcus aureus [27]) of the same compound?
A: 8 µg/mL (≈ 5.52 µM)

Q: What about the MIC (Staphylococcus aureus [28]) of the same compound?
A: 1.5 µg/mL (≈ 1.04 µM)

Q: And the MIC (Staphylococcus aureus [30])?
A: 1.5 µg/mL (≈ 1.04 µM)

Q: What about the Activity (Staphylococcus aureus [1]) of the same compound?
A: inactive

Q: What about the Activity (Staphylococcus aureus [2]) of the same compound?
A: inactive

Q: What about the Activity (Staphylococcus aureus [3]) of the same compound?
A: inactive

Q: And the Activity (Staphylococcus aureus [4])?
A: inactive

Q: What about the MIC (Staphylococcus aureus [33]) of the same compound?
A: 0.25 µg/mL (≈ 0.173 µM)

Q: For `NCCCCCNC(=O)CCc1ccc(O)c(O)c1`, which MIC (Staphylococcus aureus [16]) is on record?
A: 25 µg/mL (≈ 93.9 µM)

Q: What about the MIC (Staphylococcus aureus [17]) of the same compound?
A: 50 µg/mL (≈ 188 µM)

Q: And the MIC (Staphylococcus aureus [18])?
A: 25 µg/mL (≈ 93.9 µM)

Q: What about the Activity (Staphylococcus aureus [34]) of the same compound?
A: inactive

Q: And the Activity (Staphylococcus aureus [35])?
A: inactive

Q: And the Activity (Staphylococcus aureus [36])?
A: inactive

Q: And the Activity (Staphylococcus aureus [37])?
A: inactive

Q: And the Activity (Staphylococcus aureus [38])?
A: inactive

Q: What about the Activity (Staphylococcus aureus [39]) of the same compound?
A: inactive

Q: And the IC50 [20]?
A: > 100 µg/mL

Q: And the MIC (Staphylococcus aureus [21])?
A: 50 µg/mL (≈ 188 µM)

Q: And the MIC (Staphylococcus aureus [23])?
A: 50 µg/mL (≈ 188 µM)

Q: And the MIC (Staphylococcus aureus [24])?
A: 50 µg/mL (≈ 188 µM)

Q: And the MIC (Staphylococcus aureus [25])?
A: 50 µg/mL (≈ 188 µM)

Q: What about the MIC (Staphylococcus aureus [27]) of the same compound?
A: 25 µg/mL (≈ 93.9 µM)

Q: What about the MIC (Staphylococcus aureus [31]) of the same compound?
A: 50 µg/mL (≈ 188 µM)
